Test results published in US9278956B1, “Small-molecule inhibitors of Rac1 in metastatic cancer cells” (University of Puerto Rico, priority 2012, dated 2016).
Where two headings read alike, the source gives them in different places.

What was measured:
[1] = test system: Rac; conditions: cited from earlier work
[2] = test system: Rac; conditions: fibroblasts; read-out: IC50 as Rac inhibitor in fibroblasts; cited from earlier work
[3] = test system: MDA-MB-435 cells; assay: Lamellipodia formation by fluorescence microscopy (Rhodamine phalloidin), MDA-MB-435; assay type: cell-based, human
[4] = test system: MCF-10A cells; assay: MTT cell viability assay, MCF-10A mammary epithelial cells; assay type: cell-based
Protocol: (§1) […] Cell viability was measured using the MTT [3-(4,5-dimethylthiazol-2-yl)-2,5-diphenyl tetrazolium bromide] cell survival and proliferation kit (Millipore, Inc., Billerica, Mass.) according to manufacturer's instructions.

[5] = target: T1, Cdc42 (Homo sapiens, UniProt P60953); assay: Cdc42-GTP pull-down, MDA-MB-435 cells; assay type: cell-based
T1 construct: endogenous in cells; host or cells: MDA-MB-435
T1 sequence (P60953 whole entry): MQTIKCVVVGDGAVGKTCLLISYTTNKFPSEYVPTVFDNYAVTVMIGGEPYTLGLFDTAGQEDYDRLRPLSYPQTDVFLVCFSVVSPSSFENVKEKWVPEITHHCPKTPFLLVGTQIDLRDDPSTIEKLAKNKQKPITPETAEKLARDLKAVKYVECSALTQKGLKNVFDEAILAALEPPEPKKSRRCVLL
Protocol: (§2) Rho, Rac, and Cdc42 activities were analyzed from MDA-MB-435 cell lysates by pulldown assays using GST-Rho binding domain from Rhotekin to isolate active GTP bound Rho, and a GST-p21 binding domain of PAK1 to isolate active Rac.GTP or Cdc42.GTP. Active and total Rho GTPases were identified by western blotting with specific antibodies: anti RhoA, anti Rac (1,2,3), anti Rac3, or anti Cdc42 (Cell Signaling Technology, Inc., Danvers, Mass.).
(§3) Cell lysates or pulldowns were western blotted using routine laboratory procedures. Anti-RhoA, -Rac (1,2,3), -Cdc42, -p-PAK^Thr423 antibodies were from Cell Signaling Technology, Inc., Danvers, Mass. Anti Vav2 was from Zymed, San Francisco, Calif.; and Rac3, PAK1, Tiam-1, and Trio antibodies were from Santa Cruz Biotechnology, Inc., Santa Cruz, Calif.

[6] = test system: Rac; assay: Rac.GTP pull-down (GST-PAK1 p21 binding domain), MDA-MB-435 cells; assay type: cell-based, human
Protocol: as §2, §3

[7] = test system: MDA-MB-435 cells; assay: Transwell cell migration assay; assay type: cell-based, human; conditions: 2 and 5 μM, 24 h treatment, 4 h migration
Protocol: Quiescent MDA-MB-435 cells were treated with vehicle or varying concentrations of EHop-016 (0-5 μM) for 24 hrs. Exactly 2×10^5 cells were placed on the top well of Transwell chambers (Corning Life Sciences, Lowell, Mass.) with media containing 10% FBS in the bottom well. The number of cells that migrated to the underside of the membrane following 4 h incubation was quantified for each treatment.

[8] = Body weight and gross toxicity in athymic nude mice; assay type: in vivo; conditions: oral and intraperitoneal, 1 mg/kg once a week for 9 weeks; preliminary
[9] = test system: Rac; assay: Rac.GTP pull-down (GST-PAK1 p21 binding domain), MDA-MB-231 cells; assay type: cell-based, human; conditions: read-out: IC50 for inhibition of Rac activity
Protocol: as §2, §3

[10] = test system: MDA-MB-231 cells; assay: MTT cell viability assay, MDA-MB-231; assay type: cell-based, human
[11] = target: T2, Rac3 (Homo sapiens, UniProt P60763); assay: Rac3-GTP pull-down, MDA-MB-435 cells; assay type: cell-based
T2 construct: endogenous in cells; host or cells: MDA-MB-435
Protocol: as §2, §3

[12] = target: Rac1 (Homo sapiens, UniProt P63000); assay: G-LISA Rac1 activation assay on MDA-MB-435 cell lysates; design: selectivity among Rho GTPases: dose or concentration left out as unconfirmed
[13] = test system: PAK1; assay: PAK1 activity by Western blot for phospho-Thr 423, MDA-MB-435 cells; assay type: cell-based, human; conditions: both 2 and 4 μM, 24 h
Protocol: as §3
The effect of EHop-016 on Rac action was also determined by analyzing the activity of the Rac downstream effector PAK that regulates Rac-mediated lamellipodia extension and directed cell migration. […] Since Rac/PAK signaling regulates directed cell migration, the effect of EHop-016 at 0-5 μM was determined on migration of MDA-MB-435 cells by using a Transwell assay. As shown in FIG. 6(B), treatment with 2 and 5 μM EHop-016 reduced directed cell migration by ˜60% at concentrations that reduced Rac activity by ˜80% as shown in FIG. 2 and FIGS. 4A-4E. It is possible that Rac may not be the only regulator of cell migration in this highly invasive cancer cell line.

[14] = target: T3, Vav2 association with Rac1(G15A) (Homo sapiens, UniProt P63000, G15A); assay: Precipitation of activated GEFs with GST-Rac1(G15A) from MDA-MB-435 lysates (Vav2); assay type: binding; conditions: 1 h, p<0.005, read-out: association of Vav2 with Rac1(G15A), compared to controls
T3 construct: purchased Cell Biolabs, San Diego, Calif; host or cells: Vav2: endogenous, MDA-MB-435 lysate
Protocol: MDA-MB-435 cells in culture media were lysed in 1% Triton X-100, 20 mM HEPES, pH 7.4, 150 mM NaCl, 5 mM MgCl2, and protease inhibitors and processed. Equal amounts of protein from clarified lysates were incubated for 1 h at 4° C. with glutathione agarose beads conjugated to GST-Rac1(G15A) nucleotide free mutant (Cell Biolabs, San Diego, Calif.), that were pre-incubated (for 1 h) with vehicle or 2 or […] EHop-016. The beads were washed and the lysates and pulldowns immunoblotted for Tiam-1, Trio, or Vav2.

[15] = test system: MDA-MB-231 cells; assay: Lamellipodia formation by fluorescence microscopy (Rhodamine phalloidin), MDA-MB-231; assay type: cell-based, human; conditions: 4 μM, 24 h, control close to 100%
Protocol: Metastatic human cancer cell lines MDA-MB-435 and MDA-MB-231 (in DMEM with 10% FBS) were treated with vehicle (0.1% DMSO) or EHop-016 at 2 and 4 μM for 24 hrs. Cells were fixed, permeabilized, and stained with Rhodamine phalloidin to visualize F-actin.

[16] = target: T4, RhoA (Homo sapiens, UniProt P61586); assay: RhoA-GTP pull-down (GST-Rhotekin Rho binding domain), MDA-MB-435 cells; assay type: cell-based; conditions: 2, 4, 5, or 10 μM
T4 construct: endogenous in cells; host or cells: MDA-MB-435
T4 sequence (P61586 whole entry, the tested form may be a part): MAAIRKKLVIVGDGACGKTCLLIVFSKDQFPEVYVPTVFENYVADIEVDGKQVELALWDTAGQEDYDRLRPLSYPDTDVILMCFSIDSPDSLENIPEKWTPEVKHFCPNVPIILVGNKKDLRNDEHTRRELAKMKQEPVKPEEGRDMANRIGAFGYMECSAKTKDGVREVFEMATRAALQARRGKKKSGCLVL
Protocol: as §2, §3

[17] = target: Tiam-1 DH/PH domain / Rac1(G15A) (Homo sapiens, UniProt P63000, G15A); assay: Interaction of purified Tiam-1 DH/PH domain with Rac1(G15A) beads
[18] = test system: MDA-MB-435 cells; assay: MTT cell viability assay, MDA-MB-435; assay type: cell-based, human
Protocol: as §1

[19] = target: Rac (Homo sapiens, UniProt P63000); conditions: cited from earlier work
[20] = target: Trio (Homo sapiens, UniProt O75962); conditions: cited from earlier work

## O=c1cc(CN2CCOCC2)occ1OCCCCCSc1ccnc2cc(C(F)(F)F)ccc12 [EHT 1864]
[1]
  concentration interfering with Rac-downstream effector interaction: 10 to 50 µM
  effective concentration as Rac inhibitor: 10 µM

## CCN(CC)CCCC(C)Nc1nc(C)cc(Nc2ccc3nc(C)cc(N)c3c2)n1 (stereo not shown) [NSC23766, reference compound]
[2]
  IC50: 50 to 100 µM
[3]; 50 μM, MDA-MB-435
  effect on lamellopodia formation: no significant effect

## CCn1c2ccccc2c2cc(Nc3ccnc(NCCCN4CCOCC4)n3)ccc21 [EHop-016, N^4-(9-Ethyl-9H-carbazol-3-yl)-N2-(3-morpholin-4-yl-propyl)-pyrimidine-2,4-diamine]
[4]; 5 μM, MCF-10A, only a trend
  decrease in cell number compared to controls: ~30%
[4]; 10 μM, MCF-10A
  cell viability remaining: ~50%
[4]; 25 μM, MCF-10A
  effect on cell viability: significant reduction
[4]; 1 or 2 μM, MCF10A
  effect on cell viability: did not significantly affect
[5]; 2 or 4 μM
  effect on Cdc42 activity: did not affect
[5]; MDA-MB-435, 5 μM
  inhibition at 5 µM: 28%
[5]; MDA-MB-435, 10 μM
  inhibition at 10 µM: 74%
[6]; 2 μM
  inhibition of Rac activity: 79%
[6]; 4 μM
  inhibition of Rac activity: 93%
[7]
  reduction of directed cell migration: ~60%
[8]
  body weight and gross toxicity: no change in body weight or gross indications of toxicity
[9]
  IC50: ~3 µM
[10]; 25 μM
  effect on cell viability: significant reduction
[10]; 1 or 2 μM
  effect on cell viability: did not significantly affect
[3]; 2 and 4 μM
  effect on extension of filopodia: did not affect
[3]; both 2 and 4 μM, 24 h, MDA-MB-435, control close to 100%
  cells that extended lamellipodia: ~30%
[11]
  inhibition at 1 µM: 58%
[12]
  potency relative to other currently available Rac inhibitors: 10-50 times
  selectivity among Rho GTPases: specific for Rac1 and Rac3
[12]; 2 and 5 μM
  reduction of Rac activity: ~80%
[12]; MDA-MB-435 cells
  potency relative to NSC23766: approximately 100 times
[12]; read-out: IC50 for inhibition of Rac1 activity, MDA-MB-435 cells, 24 h treatment
  IC50: 1.1 µM
[13]
  effect on PAK activity (phospho-Thr 423 PAK1): dramatically inhibits
[14]
  remaining activity at 4 µM: ~50%
[15]
  cells that extended lamellipodia: ~30%
[16]
  increase of RhoA activity: ~1.3 fold
[17]
  concentration at which Tiam-1 DH/PH-Rac1(G15A) interaction is inhibited: 40 µM
[17]; 5 μM
  effect on interaction of Tiam-1 DH/PH domain with Rac1(G15A): did not affect
[17]; read-out: inhibition of Tiam-1/Rac1(G15A) interaction
  inhibition at 50 µM: 64%
[18]; 5 μM, MDA-MB-435, only a trend
  decrease in cell number compared to controls: ~30%
[18]; 10 μM, MDA-MB-435
  cell viability remaining: ~50%
[18]; 25 μM, MDA-MB-435
  effect on cell viability: significant reduction
[18]; 1 or 2 μM, MDA-MB-435
  effect on cell viability: did not significantly affect
[18]; low concentrations (<5 μM)
  effect on cell viability: does not affect

## O=C(C#Cc1ccccc1)c1cccc([N+](=O)[O-])c1 [MLS000532223]
[19]
  effect on GTP binding to Rac: prevents GTP binding to Rac

## Cc1cc(/C=c2/sc3nc4ccccc4n3c2=O)c(C)n1-c1ccccc1 [ITX3]
[20]
  effective concentration: 50 to 100 µM
